According to patent publication US11214803B2, “Modulators of YAP1 expression” (Ionis Pharmaceuticals, Inc., priority 2019, dated 2022):
Strand notation (5' to 3'): a small letter for the sugar, then the base; units joined by * are phosphorothioate-linked, units joined directly phosphodiester-linked; [ ] holds rarer units or linkages, { } end groups; capitals alone tell only the bases. k = constrained ethyl (cEt); [5mC] = 5-methylcytosine; d = 2'-deoxy (DNA)

Test system: Yap1 mRNA
Experiment: Antisense inhibition of human Yap1 in A-431 cells by cEt gapmers, single dose (Example 2, RTS4814)
Assay type: cell-based
Experimental: Modified oligonucleotides were designed to target a Yap1 nucleic acid and were tested for their effect on Yap1 mRNA level in vitro. The modified oligonucleotides were tested in a series of experiments that had similar culture conditions. Cultured A-431 cells at a density of 5,000 cells per well were treated using free uptake with 2,000 nM of modified oligonucleotide. After a treatment period of approximately 48 hours, RNA was isolated from the cells and Yap1 mRNA levels were measured by quantitative real-time RTPCR. Human primer probe set RTS4814 was used to measure mRNA levels. Yap1 mRNA levels were normalized to total RNA content, as measured by RIBOGREEN®. Results are presented in the tables below as percent control of the amount of Yap1 mRNA relative to untreated control cells (% UTC). The modified oligonucleotides with percent control values marked with an asterisk (*) target the amplicon region of the primer probe set. Additional assays may be used to measure the potency and efficacy of the modified oligonucleotides targeting the amplicon region.
The newly designed modified oligonucleotides in the Tables below were designed as 3-10-3 cEt gapmers. The gapmers are 16 nucleosides in length, wherein the central gap segment comprises of ten 2′-deoxynucleosides and is flanked by wing segments on the 5′ direction and the 3′ direction comprising three nucleosides each. Each nucleoside in the 5′ wing segment and each nucleoside in the 3′ wing segment has a cEt sugar modification. The internucleoside linkages throughout each gapmer are phosphorothioate (P═S) linkages. All cytosine residues throughout each gapmer are 5-methylcytosines.
“Start site” indicates the 5′-most nucleoside to which the gapmer is targeted in the human gene sequence. “Stop site” indicates the 3′-most nucleoside to which the gapmer is targeted human gene sequence. […] Activity ofthe modified oligonucleotide may be defined in a different experiment.

[1] = Table 5, A-431 cells, 5,000 cells per well, free uptake, 2,000 nM modified oligonucleotide, approx. 48 hours, RTS4814, normalized to RIBOGREEN, Yap1 mRNA relative to untreated control cells
[2] = Table 6, A-431 cells, 5,000 cells per well, free uptake, 2,000 nM modified oligonucleotide, approx. 48 hours, RTS4814, normalized to RIBOGREEN, Yap1 mRNA relative to untreated control cells
[3] = Table 32, Yap1 mRNA, percent of untreated control, 3-10-3 cEt gapmers targeting SEQ ID NO.: 1, and 2
[4] = Table 33, Yap1 mRNA, percent of untreated control, 3-10-3 cEt gapmers targeting SEQ ID NO.: 1, and 2
[5] = Table 20, Yap1 mRNA, percent of untreated control, 3-10-3 cEt gapmers targeting SEQ ID NO.: 1 and 2
[6] = Table 24, Yap1 mRNA as percent of untreated control, 3-10-3 cEt gapmers targeting SEQ ID NO.: 1, and 2
[7] = A-431 cells, 5,000 cells per well, free uptake, 2,000 nM modified oligonucleotide, approx. 48 hours, RTS4814, normalized to RIBOGREEN, Table 4, asterisk (*) = targets amplicon region of primer probe set
[8] = Table 25, Yap1 mRNA as percent of untreated control, 3-10-3 cEt gapmers targeting SEQ ID NO.: 1, and 2
[9] = Table 23, Yap1 mRNA as percent of untreated control, 3-10-3 cEt gapmers, single dose
[10] = Table 21, Yap1 mRNA, percent of untreated control, 3-10-3 cEt gapmers targeting SEQ ID NO.: 1 and 2
[11] = Table 22, Yap1 mRNA as percent of untreated control, 3-10-3 cEt gapmers, single dose
[12] = Yap1 mRNA as percent of untreated control, A-431 cells, 3-10-3 cEt gapmers targeting SEQ ID NO.: 1, and 2, Table 30

716473 (k[5mC]*kT*kA*dT*dA*dA*dA*dG*d[5mC]*dT*dT*dA*dT*kT*kT*k[5mC]; antisense) [Compound 716473]
YAP1 (% UTC) [1]: 104 % UTC

716405 (kT*kG*kT*dT*dA*dA*dG*dG*dA*dA*dA*dG*dG*kA*kT*k[5mC]; antisense) [Compound 716405]
YAP1 (% UTC) [2]: 149 % UTC

1074354 (antisense kG*kG*kA*d[5mC]*dA*d[5mC]*dT*dG*dT*dA*dG*d[5mC]*dT*kG*k[5mC]*kT) [compound 1074354]
YAP1 (% UTC) [3]: 24 % UTC

1075475 (kT*kA*kG*d[5mC]*dA*dA*d[5mC]*dA*d[5mC]*dA*dT*dG*dA*kA*kG*kA; antisense) [compound 1075475]
YAP1 (% UTC) [4]: 64 % UTC

1075878 (kG*kA*kT*dT*dA*dT*d[5mC]*dA*dA*dG*dT*dA*dG*kT*kT*kT; antisense) [Compound 1075878]
YAP1 (% UTC) [5]: 35 % UTC

716447 (k[5mC]*k[5mC]*kA*dA*d[5mC]*d[5mC]*dA*dA*d[5mC]*d[5mC]*d[5mC]*d[5mC]*d[5mC]*k[5mC]*k[5mC]*kA; antisense) [Compound 716447]
YAP1 (% UTC) [2]: 97 % UTC

1075018 (antisense k[5mC]*k[5mC]*kT*dT*dA*dA*dA*dG*dT*dG*dA*dT*dA*k[5mC]*kA*k[5mC]) [Compound 1075018]
YAP1 (% UTC) [6]: 29 % UTC

716400 (kT*kA*kA*d[5mC]*dT*d[5mC]*d[5mC]*dT*dG*dA*d[5mC]*dA*dT*kT*kT*kT; antisense) [Compound 716400]
YAP1 (% UTC) [7]: 106 % UTC

1076171 (kA*kT*kT*dA*dG*dT*dA*dA*dA*dG*dA*dG*dT*kA*k[5mC]*kT; antisense) [Compound 1076171]
YAP1 (% UTC) [8]: 30 % UTC

1076009 (kT*kA*kG*d[5mC]*dG*dA*dA*dA*dA*dT*dA*dA*d[5mC]*kA*kT*kT; antisense) [Compound 1076009]
YAP1 (% UTC) [9]: 69 % UTC

1076486 (antisense kG*kA*kA*dA*d[5mC]*dG*dA*dA*dA*d[5mC]*dG*dG*dG*kA*kA*kA) [Compound 1076486]
YAP1 (% UTC) [5]: 5 % UTC

1074323 (antisense k[5mC]*kA*kG*dG*dG*d[5mC]*dT*dA*dA*d[5mC]*dT*d[5mC]*d[5mC]*kT*kG*kA) [compound 1074323]
YAP1 (% UTC) [4]: 116 % UTC

1074279 (antisense kG*kT*k[5mC]*dA*dA*dG*d[5mC]*d[5mC]*dT*dT*dG*dG*dG*kT*k[5mC]*kT) [Compound 1074279]
YAP1 (% UTC) [10]: 13 % UTC

716409 (k[5mC]*kA*kG*dG*dA*dA*dG*dT*d[5mC]*dA*dT*d[5mC]*dT*kG*kG*kG; antisense) [Compound 716409]
YAP1 (% UTC) [7]: 99 % UTC

1075432 (antisense k[5mC]*kT*kA*dA*d[5mC]*dT*dA*dA*dA*d[5mC]*dT*dG*dA*kT*kT*k[5mC]) [Compound 1075432]
YAP1 (% UTC) [11]: 121 % UTC

716567 (kG*kA*k[5mC]*dT*dA*dT*dA*d[5mC]*dA*dA*d[5mC]*dA*dG*kG*k[5mC]*k[5mC]; antisense) [Compound 716567]
YAP1 (% UTC) [2]: 134 % UTC

1076518 (antisense kG*kA*kT*dA*dA*dG*d[5mC]*dA*d[5mC]*d[5mC]*dA*d[5mC]*d[5mC]*kA*kT*kA) [Compound 1076518]
YAP1 (% UTC) [5]: 25 % UTC

716560 (kT*kA*kA*d[5mC]*dA*dA*dT*dT*dT*dA*dT*dG*dT*kA*kA*kG; antisense) [Compound 716560]
YAP1 (% UTC) [1]: 107 % UTC

1075274 (antisense kA*kA*kT*dA*dA*dT*d[5mC]*d[5mC]*dA*dG*d[5mC]*d[5mC]*dT*kA*kG*kG) [Compound 1075274]
YAP1 (% UTC) [6]: 86 % UTC

1075786 (k[5mC]*kT*kA*dT*dA*dT*dT*dG*dA*dT*dT*d[5mC]*d[5mC]*kA*kG*kA; antisense) [Compound 1075786]
YAP1 (% UTC) [6]: 19 % UTC

716387 (kT*kA*kT*dG*dG*dT*dT*dT*dA*dT*dA*dT*dA*kG*kT*kA; antisense) [Compound 716387]
YAP1 (% UTC) [2]: 33 % UTC

1074278 (antisense k[5mC]*kT*kT*dG*dG*dG*dT*d[5mC]*dT*dA*dG*d[5mC]*d[5mC]*kA*kA*kG) [Compound 1074278]
YAP1 (% UTC) [5]: 31 % UTC

1075602 (antisense kT*kA*kT*dT*dA*dT*dA*dA*dG*dT*d[5mC]*dT*dA*k[5mC]*kA*kA) [compound 1075602]
YAP1 (% UTC) [3]: 114 % UTC

1075305 (kA*kA*kA*d[5mC]*dG*dA*dA*dA*d[5mC]*dA*d[5mC]*dG*dG*kG*kT*kA; antisense) [Compound 1075305]
YAP1 (% UTC) [9]: 66 % UTC

716417 (kT*kG*kT*dA*dA*dG*dA*dA*dA*dG*d[5mC]*dT*dT*kT*k[5mC]*kT; antisense) [Compound 716417]
YAP1 (% UTC) [2]: 78 % UTC

1075653 (k[5mC]*kA*kT*dA*dA*dA*d[5mC]*dT*d[5mC]*dT*dG*d[5mC]*dT*kG*kT*k[5mC]; antisense) [Compound 1075653]
YAP1 (% UTC) (Table 19, A-431 cells, 5,000 cells per well, free uptake, 2,000 nM modified oligonucleotide, approx. 48 hours, RTS4814, normalized to RIBOGREEN, Yap1 mRNA as percent of untreated control): 58 % UTC

1075750 (k[5mC]*kA*kA*dT*dT*dA*dT*dG*dA*dA*dT*dG*dA*kT*kG*kG; antisense) [Compound 1075750]
YAP1 (% UTC) [5]: 10 % UTC

1074219 (antisense kA*kG*kT*d[5mC]*dA*dG*dG*dG*d[5mC]*dT*d[5mC]*d[5mC]*dT*kG*k[5mC]*kA) [Compound 1074219]
YAP1 (% UTC) [8]: 30 % UTC

1075300 (k[5mC]*kG*kT*dG*dA*dA*dA*dA*dG*dA*dA*dA*dG*kG*k[5mC]*k[5mC]; antisense) [Compound 1075300]
YAP1 (% UTC) (Table 18, A-431 cells, 5,000 cells per well, free uptake, 2,000 nM modified oligonucleotide, approx. 48 hours, RTS4814, normalized to RIBOGREEN, Yap1 mRNA as percent of untreated control): 98 % UTC

1075014 (antisense kG*kG*kA*dG*dA*dA*dA*dT*dA*dA*dA*dA*dG*kT*k[5mC]*kG) [Compound 1075014]
YAP1 (% UTC) [5]: 46 % UTC

1076336 (antisense k[5mC]*kA*kT*dT*dA*d[5mC]*d[5mC]*dA*d[5mC]*d[5mC]*dT*dA*dT*kA*kA*kG) [compound 1076336]
YAP1 (% UTC) [12]: 31 % UTC

1074343 (antisense kA*kG*kA*d[5mC]*dA*dT*d[5mC]*d[5mC]*d[5mC]*dG*dG*dG*dA*kG*kA*kA) [Compound 1074343]
YAP1 (% UTC) [10]: 18 % UTC

1074408 (antisense kG*kA*kT*dT*dA*dA*dA*dG*dT*dA*dT*d[5mC]*dT*kT*kG*k[5mC]) [Compound 1074408]
YAP1 (% UTC) [11]: 23 % UTC

1076234 (k[5mC]*k[5mC]*kT*dT*dA*dA*dT*dA*dT*dA*dT*d[5mC]*d[5mC]*kA*k[5mC]*kA; antisense) [Compound 1076234]
YAP1 (% UTC) [6]: 24 % UTC

1074128 (k[5mC]*kT*k[5mC]*d[5mC]*dA*d[5mC]*dT*dG*dG*dT*d[5mC]*dT*dG*kG*k[5mC]*kG; antisense) [compound 1074128]
YAP1 (% UTC) [12]: 76 % UTC

1075113 (antisense kT*kA*kT*dA*dA*dA*dT*dA*d[5mC]*d[5mC]*dA*dG*dG*kT*kA*k[5mC]) [Compound 1075113]
YAP1 (% UTC) [9]: 67 % UTC

1074987 (antisense kG*k[5mC]*k[5mC]*dG*d[5mC]*dG*dG*d[5mC]*dT*d[5mC]*d[5mC]*d[5mC]*dG*kA*kG*k[5mC]) [Compound 1074987]
YAP1 (% UTC) [8]: 94 % UTC

1074187 (antisense k[5mC]*kT*kG*d[5mC]*dG*dA*dA*dG*dG*d[5mC]*dG*dG*d[5mC]*kT*kG*k[5mC]) [Compound 1074187]
YAP1 (% UTC) [8]: 47 % UTC

716523 (antisense k[5mC]*kA*kA*dA*dT*dT*dA*dA*dA*dG*dT*dT*dG*kA*kG*kG) [Compound 716523]
YAP1 (% UTC) [7]: 37 % UTC

1075955 (kG*kA*k[5mC]*d[5mC]*dT*dA*dT*dA*dA*dT*dA*d[5mC]*dA*kG*kA*kA; antisense) [compound 1075955]
YAP1 (% UTC) [4]: 85 % UTC

716479 (kG*kA*kA*d[5mC]*dA*dA*dT*d[5mC]*dT*dT*dG*dA*dA*kG*kG*k[5mC]; antisense) [Compound 716479]
YAP1 (% UTC) [1]: 32 % UTC
